# Measured values as given in article PMC5218480 (PLoS ONE, 2017).
# Test system: MV-4-11 cells
# Assay: Gene expression microarray analysis (Affymetrix PrimeView) and GSEA
# Type: cell-based, human
# Parameters: RFU PODN (11730768_x_at) / Fold change /veh PODN (11730768_x_at) / RFU LINC00158 (11744669_a_at) / Fold change /veh LINC00158 (11744669_a_at) / RFU DUSP10 (11751237_a_at) / Fold change /veh DUSP10 (11751237_a_at) / RFU ID3 (11757404_x_at) / Fold change /veh ID3 (11757404_x_at) / RFU PLEKHG5 (11737974_s_at) / Fold change /veh PLEKHG5 (11737974_s_at) / RFU LRRC4B (11730491_at) / Fold change /veh LRRC4B (11730491_at) / RFU GIMAP4 (11747438_a_at) / Fold change /veh GIMAP4 (11747438_a_at) / RFU KRT8 (11758183_x_at) / Fold change /veh KRT8 (11758183_x_at) / RFU CNN1 (11734310_a_at) / Fold change /veh CNN1 (11734310_a_at) / RFU VPS37D (11726825_at) / Fold change /veh VPS37D (11726825_at) / RFU C10orf10 (11716522_x_at) / Fold change /veh C10orf10 (11716522_x_at) / RFU KIR2DL2 /// KIR2DL4 /// KIR2DL5A /// KIR2DL5B /// KIR2DS1 /// KIR2DS2 /// KIR2DS3 /// KIR2DS4 /// KIR3DL3 /// KIR3DL3 /// KIR3DS1 (11738374_at) / Fold change /veh KIR2DL2 /// KIR2DL4 /// KIR2DL5A /// KIR2DL5B /// KIR2DS1 /// KIR2DS2 /// KIR2DS3 /// KIR2DS4 /// KIR3DL3 /// KIR3DL3 /// KIR3DS1 (11738374_at) / RFU C1QL1 (11718748_at) / Fold change /veh C1QL1 (11718748_at) / RFU TMPRSS4 (11747572_a_at) / Fold change /veh TMPRSS4 (11747572_a_at) / RFU HAMP (11756126_x_at) / Fold change /veh HAMP (11756126_x_at) / RFU RNFT2 (11725882_a_at) / Fold change /veh RNFT2 (11725882_a_at) / RFU NR4A2 (11747474_a_at) / Fold change /veh NR4A2 (11747474_a_at) / RFU ABCC12 (11746883_a_at) / Fold change /veh ABCC12 (11746883_a_at) / RFU TMEM136 (11760407_x_at) / Fold change /veh TMEM136 (11760407_x_at) / RFU CLDN22 /// WWC2 (11732394_at) / Fold change /veh CLDN22 /// WWC2 (11732394_at) / RFU HLA-DPB1 (11760878_x_at) / Fold change /veh HLA-DPB1 (11760878_x_at) / RFU SPINT1 (11716480_a_at) / Fold change /veh SPINT1 (11716480_a_at) / RFU GAP43 (11754022_s_at) / Fold change /veh GAP43 (11754022_s_at) / RFU A4GNT (11735810_at) / Fold change /veh A4GNT (11735810_at) / RFU PRB3 (11715151_x_at) / Fold change /veh PRB3 (11715151_x_at) / RFU TUBB4B (11761932_at) / Fold change /veh TUBB4B (11761932_at) / RFU CAPN14 (11732068_a_at) / Fold change /veh CAPN14 (11732068_a_at) / RFU TMCC2 (11721928_a_at) / Fold change /veh TMCC2 (11721928_a_at) / RFU IRGQ (11745062_a_at) / Fold change /veh IRGQ (11745062_a_at) / RFU FAM174B (11720279_a_at) / Fold change /veh FAM174B (11720279_a_at) / RFU TMPRSS4 (11748680_a_at) / Fold change /veh TMPRSS4 (11748680_a_at) / RFU FAM212B (11763350_a_at) / Fold change /veh FAM212B (11763350_a_at) / RFU PLEKHG5 (11743358_a_at) / Fold change /veh PLEKHG5 (11743358_a_at) / RFU ZSCAN30 (11745921_a_at) / Fold change /veh ZSCAN30 (11745921_a_at) / RFU CMKLR1 (11741424_a_at) / Fold change /veh CMKLR1 (11741424_a_at) / RFU LOC101060620 /// MAPK8IP1 (11723275_at) / Fold change /veh LOC101060620 /// MAPK8IP1 (11723275_at) / RFU SPTSSB (11747773_x_at) / Fold change /veh SPTSSB (11747773_x_at) / RFU PRSS12 (11739890_at) / Fold change /veh PRSS12 (11739890_at) / RFU BIN1 (11741810_x_at) / Fold change /veh BIN1 (11741810_x_at) / RFU WNT11 (11732464_a_at) / Fold change /veh WNT11 (11732464_a_at) / RFU C10orf10 (11716521_a_at) / Fold change /veh C10orf10 (11716521_a_at) / RFU C5orf56 (11738089_at) / Fold change /veh C5orf56 (11738089_at) / RFU CYB561 (11721691_x_at) / Fold change /veh CYB561 (11721691_x_at) / RFU ANKRD19P (11752326_a_at) / Fold change /veh ANKRD19P (11752326_a_at) / RFU OR2T12 /// OR2T33 /// OR2T8 (11738714_s_at) / Fold change /veh OR2T12 /// OR2T33 /// OR2T8 (11738714_s_at) / RFU VCAN (11748164_a_at) / Fold change /veh VCAN (11748164_a_at) / RFU JSRP1 (11732532_at) / Fold change /veh JSRP1 (11732532_at) / RFU KRTAP10-11 (11738290_x_at) / Fold change /veh KRTAP10-11 (11738290_x_at) / RFU MYO3A (11730013_a_at) / Fold change /veh MYO3A (11730013_a_at) / RFU EBF3 (11725865_a_at) / Fold change /veh EBF3 (11725865_a_at) / RFU CAMK2N1 (11719241_x_at) / Fold change /veh CAMK2N1 (11719241_x_at) / RFU C5orf56 (11738088_a_at) / Fold change /veh C5orf56 (11738088_a_at) / RFU OLFML3 (11715873_a_at) / Fold change /veh OLFML3 (11715873_a_at) / RFU LOC100653217 /// NTM (11731650_a_at) / Fold change /veh LOC100653217 /// NTM (11731650_a_at) / RFU MAPK11 (11762145_a_at) / Fold change /veh MAPK11 (11762145_a_at) / RFU FIZ1 (11724087_x_at) / Fold change /veh FIZ1 (11724087_x_at) / RFU OASL (11726364_x_at) / Fold change /veh OASL (11726364_x_at) / RFU SOX15 (11748057_x_at) / Fold change /veh SOX15 (11748057_x_at) / RFU CD79A (11719716_a_at) / Fold change /veh CD79A (11719716_a_at) / RFU HIST1H1D (11736915_at) / Fold change /veh HIST1H1D (11736915_at) / RFU CASKIN2 (11723855_a_at) / Fold change /veh CASKIN2 (11723855_a_at) / RFU LOC730098 (11760151_x_at) / Fold change /veh LOC730098 (11760151_x_at) / RFU OR4N2 (11742367_at) / Fold change /veh OR4N2 (11742367_at) / RFU PRRT2 (11749266_a_at) / Fold change /veh PRRT2 (11749266_a_at) / RFU SNX32 (11753110_a_at) / Fold change /veh SNX32 (11753110_a_at) / RFU CDHR5 (11726645_a_at) / Fold change /veh CDHR5 (11726645_a_at) / RFU RCAN1 (11760418_a_at) / Fold change /veh RCAN1 (11760418_a_at) / RFU FAM167A (11723789_a_at) / Fold change /veh FAM167A (11723789_a_at) / RFU FAM26E (11764081_at) / Fold change /veh FAM26E (11764081_at) / RFU ISYNA1 (11749810_s_at) / Fold change /veh ISYNA1 (11749810_s_at) / RFU ACY1 (11761880_at) / Fold change /veh ACY1 (11761880_at) / RFU 11764098_at / Fold change /veh 11764098_at / RFU SAMD14 (11745864_x_at) / Fold change /veh SAMD14 (11745864_x_at) / RFU NPB (11741838_a_at) / Fold change /veh NPB (11741838_a_at) / RFU TMPRSS6 (11731388_a_at) / Fold change /veh TMPRSS6 (11731388_a_at) / RFU KRTAP10-2 (11738614_at) / Fold change /veh KRTAP10-2 (11738614_at) / RFU ARHGAP8 /// PRR5-ARHGAP8 (11727945_x_at) / Fold change /veh ARHGAP8 /// PRR5-ARHGAP8 (11727945_x_at) / RFU KRTAP5-7 /// NADSYN1 (11734609_at) / Fold change /veh KRTAP5-7 /// NADSYN1 (11734609_at) / RFU RASL12 (11751679_a_at) / Fold change /veh RASL12 (11751679_a_at) / RFU CDKN2B (11736163_a_at) / Fold change /veh CDKN2B (11736163_a_at) / RFU PRF1 (11729649_at) / Fold change /veh PRF1 (11729649_at) / RFU, ZNF638 /// ZNF638-IT1 / Fold change vs veh, ZNF638 /// ZNF638-IT1 / RFU, PANK3 / Fold change vs veh, PANK3 / RFU, SH3YL1 / Fold change vs veh, SH3YL1 / RFU, ZEB2 / Fold change vs veh, ZEB2 / RFU, NRIP1 / Fold change vs veh, NRIP1 / RFU, PTTG1IP / Fold change vs veh, PTTG1IP / RFU, CAPN2 / Fold change vs veh, CAPN2 / RFU, MED14 / Fold change vs veh, MED14 / RFU, SNORA58 / Fold change vs veh, SNORA58 / RFU, C1orf63 / Fold change vs veh, C1orf63 / RFU, LRRFIP1 / Fold change vs veh, LRRFIP1 / RFU, NDUFAF7 / Fold change vs veh, NDUFAF7 / RFU, SLC12A2 / Fold change vs veh, SLC12A2 / RFU, IBTK / Fold change vs veh, IBTK / RFU, ESF1 / Fold change vs veh, ESF1 / Fold change vs veh, TMEM50B / RFU, TAOK1 / Fold change vs veh, TAOK1 / RFU, ACBD3 / Fold change vs veh, ACBD3 / RFU, TMA16 / Fold change vs veh, TMA16 / RFU, RWDD3 / Fold change vs veh, RWDD3 / RFU, BCAT1 / Fold change vs veh, BCAT1 / RFU, EDEM3 / Fold change vs veh, EDEM3 / RFU, TMEM33 / Fold change vs veh, TMEM33 / RFU, WDR75 / Fold change vs veh, WDR75 / RFU, AHCTF1 / Fold change vs veh, AHCTF1 / RFU, TFRC / Fold change vs veh, TFRC / RFU, ZDHHC17 / Fold change vs veh, ZDHHC17 / RFU, NOM1 / Fold change vs veh, NOM1 / RFU, ARL8B / Fold change vs veh, ARL8B / RFU, ZBTB11 / Fold change vs veh, ZBTB11 / RFU, TAMM41 / Fold change vs veh, TAMM41 / RFU, KIAA1704 /// LOC100996395 / Fold change vs veh, KIAA1704 /// LOC100996395 / RFU, ING1 / Fold change vs veh, ING1 / RFU, TRMT61B / Fold change vs veh, TRMT61B / RFU, FUBP3 / Fold change vs veh, FUBP3 / RFU, TP53 / Fold change vs veh, TP53 / RFU, TNKS2 / Fold change vs veh, TNKS2 / RFU, ZFP14 / Fold change vs veh, ZFP14 / RFU, ACTR2 / Fold change vs veh, ACTR2 / RFU, PPP3R1 / Fold change vs veh, PPP3R1 / RFU, PIK3R1 / Fold change vs veh, PIK3R1 / RFU, HNRNPA1 / Fold change vs veh, HNRNPA1 / RFU, RNF170 / Fold change vs veh, RNF170 / RFU, ZNF28 / Fold change vs veh, ZNF28 / RFU, RNGTT / Fold change vs veh, RNGTT / RFU, OGT / Fold change vs veh, OGT / RFU, BRD1 / Fold change vs veh, BRD1 / RFU, MARS / Fold change vs veh, MARS / RFU, ZNF655 / Fold change vs veh, ZNF655 / RFU, FAHD1 / Fold change vs veh, FAHD1 / RFU, BDP1 / Fold change vs veh, BDP1 / RFU, LRRCC1 / Fold change vs veh, LRRCC1 / RFU, ARID1A / Fold change vs veh, ARID1A / RFU, ZNF146 / Fold change vs veh, ZNF146 / RFU, ZNF330 / Fold change vs veh, ZNF330 / RFU, GPN3 / Fold change vs veh, GPN3 / RFU, C9orf123 / Fold change vs veh, C9orf123 / RFU, N4BP2L2 / Fold change vs veh, N4BP2L2 / RFU, ARFIP1 / Fold change vs veh, ARFIP1 / RFU, FAM179B / Fold change vs veh, FAM179B / RFU, BCL10 / Fold change vs veh, BCL10 / RFU, UHRF1BP1L / Fold change vs veh, UHRF1BP1L / RFU, BET1 / Fold change vs veh, BET1 / RFU, CNOT2 / Fold change vs veh, CNOT2 / RFU, ZNF268 / Fold change vs veh, ZNF268 / Fold change vs veh, ZNF507 / RFU, DGCR2 / Fold change vs veh, DGCR2 / RFU, WDSUB1 / Fold change vs veh, WDSUB1 / Fold change vs veh, HSP90B1 /// MIR3652 / RFU, ADSS / Fold change vs veh, ADSS / RFU, GK / Fold change vs veh, GK / RFU, ZNF148 / Fold change vs veh, ZNF148 / RFU, TAF9 / Fold change vs veh, TAF9 / RFU, SLC1A5 / Fold change vs veh, SLC1A5 / RFU, SLMO2 / Fold change vs veh, SLMO2 / RFU, ABCC4 / Fold change vs veh, ABCC4 / RFU, LOC101060439 /// RAP1B / Fold change vs veh, LOC101060439 /// RAP1B / RFU, RFX7 / Fold change vs veh, RFX7 / RFU, GTPBP10 / Fold change vs veh, GTPBP10 / RFU, CNEP1R1 / Fold change vs veh, CNEP1R1 / RFU, BIVM-ERCC5 /// ERCC5 / Fold change vs veh, BIVM-ERCC5 /// ERCC5 / RFU, ILF3 / Fold change vs veh, ILF3 / RFU 11762660_at / Fold change /veh 11762660_at / RFU VCAN (11757783_s_at) / Fold change /veh VCAN (11757783_s_at) / RFU DDX43 (11728927_at) / Fold change /veh DDX43 (11728927_at) / RFU KRT8 (11758188_x_at) / Fold change /veh KRT8 (11758188_x_at) / RFU NKD1 (11759106_at) / Fold change /veh NKD1 (11759106_at) / RFU SRD5A1 (11742802_a_at) / Fold change /veh SRD5A1 (11742802_a_at) / RFU TPSAB1 /// TPSB2 (11721975_s_at) / Fold change /veh TPSAB1 /// TPSB2 (11721975_s_at) / RFU GSTM3 (11746129_a_at) / Fold change /veh GSTM3 (11746129_a_at) / RFU IL23R (11737362_x_at) / Fold change /veh IL23R (11737362_x_at) / RFU TMEM51 (11727254_a_at) / Fold change /veh TMEM51 (11727254_a_at) / RFU PIWIL2 (11732686_x_at) / Fold change /veh PIWIL2 (11732686_x_at) / RFU ORM1 (11744905_x_at) / Fold change /veh ORM1 (11744905_x_at) / RFU CCDC152 (11743942_at) / Fold change /veh CCDC152 (11743942_at) / RFU ECM1 (11717891_a_at) / Fold change /veh ECM1 (11717891_a_at) / RFU IL23R (11748794_a_at) / Fold change /veh IL23R (11748794_a_at) / RFU TNFAIP8L3 (11732012_x_at) / Fold change /veh TNFAIP8L3 (11732012_x_at) / RFU MBOAT4 (11741988_at) / Fold change /veh MBOAT4 (11741988_at) / RFU 11764193_at / Fold change /veh 11764193_at / RFU TMEM53 (11763286_at) / Fold change /veh TMEM53 (11763286_at) / RFU MAGEB2 (11727129_at) / Fold change /veh MAGEB2 (11727129_at) / RFU TMEM200A (11744735_a_at) / Fold change /veh TMEM200A (11744735_a_at) / RFU CCDC152 (11751479_a_at) / Fold change /veh CCDC152 (11751479_a_at) / RFU FAM211A (11726209_a_at) / Fold change /veh FAM211A (11726209_a_at) / RFU RGS16 (11746705_a_at) / Fold change /veh RGS16 (11746705_a_at) / RFU VCAN (11755009_s_at) / Fold change /veh VCAN (11755009_s_at) / RFU RHOB (11743442_s_at) / Fold change /veh RHOB (11743442_s_at) / RFU RGS16 (11720943_a_at) / Fold change /veh RGS16 (11720943_a_at) / RFU RGS16 (11720944_at) / Fold change /veh RGS16 (11720944_at) / RFU, VPS4B / Fold change vs veh, VPS4B / RFU, CREB1 / Fold change vs veh, CREB1 / RFU, DNAJC13 / Fold change vs veh, DNAJC13 / RFU, GNAQ / Fold change vs veh, GNAQ / RFU, CDK5R1 / Fold change vs veh, CDK5R1 / RFU, ZRANB3 / Fold change vs veh, ZRANB3 / RFU, CUL4A / Fold change vs veh, CUL4A / RFU, CCNY / Fold change vs veh, CCNY / RFU, UFL1 / Fold change vs veh, UFL1 / RFU, COG3 / Fold change vs veh, COG3 / RFU, DIAPH2 / Fold change vs veh, DIAPH2 / RFU, SKA2 / Fold change vs veh, SKA2 / RFU, AFF3 / Fold change vs veh, AFF3 / RFU, LMF1 / Fold change vs veh, LMF1 / RFU, IPO11 / Fold change vs veh, IPO11 / RFU, DFFB / Fold change vs veh, DFFB / RFU, FOXP1 / Fold change vs veh, FOXP1 / RFU, CARD8 / Fold change vs veh, CARD8 / RFU, STRN3 / Fold change vs veh, STRN3 / RFU, ADK / Fold change vs veh, ADK / RFU, RASSF2 / Fold change vs veh, RASSF2 / RFU, WIPF1 / Fold change vs veh, WIPF1 / RFU, LARP1B / Fold change vs veh, LARP1B / RFU, RASA1 / Fold change vs veh, RASA1 / RFU, RB1 / Fold change vs veh, RB1 / RFU, PPFIA1 / Fold change vs veh, PPFIA1 / RFU, MAT2A / Fold change vs veh, MAT2A / RFU, CCT5 / Fold change vs veh, CCT5 / RFU, WDR92 / Fold change vs veh, WDR92 / RFU, CUX1 / Fold change vs veh, CUX1 / RFU, TTC7A / Fold change vs veh, TTC7A / RFU, TMEM135 / Fold change vs veh, TMEM135 / RFU, DEPTOR / Fold change vs veh, DEPTOR / RFU, CPM / Fold change vs veh, CPM / RFU, DNAJB6 / Fold change vs veh, DNAJB6 / RFU, CACNA2D3 / Fold change vs veh, CACNA2D3 / RFU, DTX4 / Fold change vs veh, DTX4 / RFU, TFCP2 / Fold change vs veh, TFCP2 / RFU, GMCL1 /// GMCL1P1 / Fold change vs veh, GMCL1 /// GMCL1P1 / RFU, AEBP2 / Fold change vs veh, AEBP2 / RFU, SNHG1 /// SNORD22 /// SNORD25 /// SNORD26 /// SNORD27 /// SNORD28 /// SNORD29 /// SNORD31 / Fold change vs veh, SNHG1 /// SNORD22 /// SNORD25 /// SNORD26 /// SNORD27 /// SNORD28 /// SNORD29 /// SNORD31 / Fold change (Aza/veh), C12orf56 (ProbeSet 11735607_a_at) / Fold change (ACY-1035/veh), C12orf56 (ProbeSet 11735607_a_at) / Fold change (Aza/veh), FGFR1OP (ProbeSet 11751329_s_at) / Fold change (ACY-1035/veh), FGFR1OP (ProbeSet 11751329_s_at) / Fold change (Aza/veh), VPS36 (ProbeSet 11739960_a_at) / Fold change (ACY-1035/veh), VPS36 (ProbeSet 11739960_a_at) / RFU SYPL1 (11715823_x_at) / Fold change /veh SYPL1 (11715823_x_at) / RFU IGFBP7 (11715501_s_at) / Fold change /veh IGFBP7 (11715501_s_at) / RFU REEP3 (11722064_at) / Fold change /veh REEP3 (11722064_at) / RFU IGLL1 (11728026_x_at) / Fold change /veh IGLL1 (11728026_x_at): dose or concentration left out as unconfirmed
# Details: ProbeSet 11717308_a_at; LIST B
compound,measurement,value
Nc1ncn([C@@H]2O[C@H](CO)[C@@H](O)[C@H]2O)c(=O)n1 [azacitidine],"Fold change vs veh, WDR75",1.10
